Experimental data as given in patent US20130303509A1, “NAMPT INHIBITORS” (AbbVie Inc., priority 2012, published 2013).

Test system: PC3 cells
Experiment: NAMPT Cell Proliferation Assay
Format: cell-based
Settings: Homo sapiens, PC-3, 120 h, 5 days incubation, cell viability by Cell Titer Glo
Outline: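 Five-day CellTiter-Glo viability readout in PC3 cells grown in RPMI/10% heat-inactivated FBS. Compounds added after overnight attachment as a 10-fold dilution series, […]. Percent inhibition fitted to sigmoidal dose-response to derive IC50.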

| IC50 | SMILES |
| --- | --- |
| 87.2 nM | O=C(Nc1ccc(S(=O)(=O)C2CCN(C(=O)c3cccc(C(F)(F)F)c3)CC2)cc1)C1CN(c2cccnn2)C1 [Example 584, 1-(pyridazin-3-yl)-N-[4-({1-[3-(trifluoromethyl)benzoyl]piperidin-4-yl}sulfonyl)phenyl]azetidine-3-carboxamide] |
| 80.7 nM | O=C(Nc1ccc(OC2CCN(C(=O)c3ccc(OC(F)(F)F)cc3)CC2)cc1)C1CN(c2ccnnc2)C1 [Example 290, 1-(pyridazin-4-yl)-N-[4-({1-[4-(trifluoromethoxy)benzoyl]piperidin-4-yl}oxy)phenyl]azetidine-3-carboxamide] |
| 2.61 nM | O=C(Nc1ccc(C2CCN(C(=O)c3ccc(Cl)cc3Cl)CC2)cc1)C1CN(c2cccnn2)C1 [Example 362, N-{4-[1-(2,4-dichlorobenzoyl)piperidin-4-yl]phenyl}-1-(pyridazin-3-yl)azetidine-3-carboxamide] |
| 235 nM | O=C(Nc1ccc(O[C@@H]2CCN(C(=O)c3ccc(OC(F)(F)F)cc3)C2)cc1)C1CN(c2ccnnc2)C1 [Example 477, 1-(pyridazin-4-yl)-N-[4-({(3R)-1-[4-(trifluoromethoxy)benzoyl]pyrrolidin-3-yl}oxy)phenyl]azetidine-3-carboxamide] |
| 3.8 nM | COc1cccc(C(=O)N2CCC(c3ccc(NC(=O)C4CN(c5cccnn5)C4)cc3)CC2)c1 [Example 346, N-{4-[1-(3-methoxybenzoyl)piperidin-4-yl]phenyl}-1-(pyridazin-3-yl)azetidine-3-carboxamide] |
| 3.73 nM | O=C(Nc1ccc(O[C@@H]2CCN(C(=O)Cc3cc(F)cc(F)c3)C2)cc1)C1CN(c2cccnn2)C1 [Example 492, N-[4-({(3R)-1-[(3,5-difluorophenyl)acetyl]pyrrolidin-3-yl}oxy)phenyl]-1-(pyridazin-3-yl)azetidine-3-carboxamide] |
| 6.05 nM | CCCCC(=O)N1CCC(c2ccc(NC(=O)C3CN(c4cccnc4)C3)cc2)CC1 [Example 98, N-[4-(1-pentanoylpiperidin-4-yl)phenyl]-1-(pyridin-3-yl)azetidine-3-carboxamide] |
| 329 nM | O=C(Nc1ccc(C2CCN(C(=O)c3ccccc3)CC2)cc1)[C@@H]1CCN(c2cccnn2)C1 [Example 793, (3R)—N-[4-(1-benzoylpiperidin-4-yl)phenyl]-1-(pyridazin-3-yl)pyrrolidine-3-carboxamide] |
| 202 nM | Cc1ncccc1N1CC(C(=O)Nc2ccc(C3CCN(C(=O)CN4CCOCC4)CC3)cc2)C1 [Example 164, 1-(2-methylpyridin-3-yl)-N-{4-[1-(morpholin-4-ylacetyl)piperidin-4-yl]phenyl}azetidine-3-carboxamide] |
| 92.3 nM | O=C(N[C@H]1CCN(c2cccnn2)C1)c1ccc(C2CCN(C(=O)c3ccc(F)cc3F)CC2)s1 [Example 761, 5-[1-(2,4-difluorobenzoyl)piperidin-4-yl]-N-[(3S)-1-(pyridazin-3-yl)pyrrolidin-3-yl]thiophene-2-carboxamide] |
| 0.24 nM | CC(C)(C)C(=O)N1CCC(c2ccc(NC(=O)C3CN(c4cccnc4)C3)cc2)CC1 [Example 125, N-{4-[1-(2,2-dimethylpropanoyl)piperidin-4-yl]phenyl}-1-(pyridin-3-yl)azetidine-3-carboxamide] |
| 6.24 nM | CC[C@H](C)C(=O)N1CC[C@@H](Oc2ccc(NC(=O)C3CN(c4cccnn4)C3)cc2)C1 [Example 486, N-[4-({(3R)-1-[(2S)-2-methylbutanoyl]pyrrolidin-3-yl}oxy)phenyl]-1-(pyridazin-3-yl)azetidine-3-carboxamide] |
| 6.81 nM | O=C(Nc1ccc(C2CCN(C(=O)C3CCCCC3)CC2)cc1)[C@H]1CCN(c2cccnn2)C1 [Example 730, (3S)-N-{4-[1-(cyclohexylcarbonyl)piperidin-4-yl]phenyl}-1-(pyridazin-3-yl)pyrrolidine-3-carboxamide] |
| 76.6 nM | O=C(Nc1ccc(C2CCN(C(=O)c3cc(Cl)cc(Cl)c3)CC2)cc1)[C@H]1CCN(c2cccnn2)C1 [Example 684, (3S)-N-{4-[1-(3,5-dichlorobenzoyl)piperidin-4-yl]phenyl}-1-(pyridazin-3-yl)pyrrolidine-3-carboxamide] |
| 1400 nM | CC(C)Cn1cc(-c2ccc(C(=O)N[C@@H]3CCN(c4cccnn4)C3)s2)cn1 [Example 605, 5-[1-(2-methylpropyl)-1H-pyrazol-4-yl]N-[(3R)-1-(pyridazin-3-yl)pyrrolidin-3-yl]thiophene-2-carboxamide] |
| 9.72 nM | O=C(Nc1ccc(C2CCN(C(=O)CCC(F)(F)F)CC2)cc1)[C@H]1CCN(c2cccnn2)C1 [Example 653, (3S)-1-(pyridazin-3-yl)-N-{4-[1-(4,4,4-trifluorobutanoyl)piperidin-4-yl]phenyl}pyrrolidine-3-carboxamide] |
| 0.99 nM | O=C(Nc1ccc(C2CCN(C(=O)CC(F)(F)F)CC2)cc1)C1CN(c2cccnn2)C1 [Example 332, 1-(pyridazin-3-yl)-N-{4-[1-(3,3,3-trifluoropropanoyl)piperidin-4-yl]phenyl}azetidine-3-carboxamide] |

| IC50 | SMILES |
| --- | --- |
| 6.2 nM | CC(C)(C)Cn1cc(-c2ccc(NC(=O)[C@H]3CCN(c4cccnn4)C3)cc2)cn1 [Example 759, (3S)-N-{4-[1-(2,2-dimethylpropyl)-1H-pyrazol-4-yl]phenyl}-1-(pyridazin-3-yl)pyrrolidine-3-carboxamide] |
| 75.4 nM | CC(C)(C)C(=O)N1CCC(c2ccc(NC(=O)C3CN(c4ccc(F)nn4)C3)cc2)CC1 [Example 820, N-{4-[1-(2,2-dimethylpropanoyl)piperidin-4-yl]phenyl}-1-(6-fluoropyridazin-3-yl)azetidine-3-carboxamide] |
| 0.95 nM | CC(C)C(=O)N1CCC(c2ccc(NC(=O)C3CN(c4cccnn4)C3)cc2)CC1 [Example 147, N-{4-[1-(2-methylpropanoyl)piperidin-4-yl]phenyl}-1-(pyridazin-3-yl)azetidine-3-carboxamide] |
| 8.06 nM | O=C(Nc1ccc(C2CCN(C(=O)c3ccccc3)CC2)cc1)C1CN(c2cncc(F)c2)C1 [Example 666, N-[4-(1-benzoylpiperidin-4-yl)phenyl]-1-(5-fluoropyridin-3-yl)azetidine-3-carboxamide] |
| 2.07 nM | Cc1cc(C(=O)N2CCC(c3ccc(NC(=O)C4CN(c5cccnn5)C4)cc3)CC2)c(C)o1 [Example 426, N-(4-{1-[(2,5-dimethylfuran-3-yl)carbonyl]piperidin-4-yl}phenyl)-1-(pyridazin-3-yl)azetidine-3-carboxamide] |
| 3.3 nM | O=C(Nc1ccc(C2CCN(C(=O)c3cc(F)ccc3F)CC2)cc1)[C@H]1CCN(c2cccnn2)C1 [Example 645, (3S)-N-{4-[1-(2,5-difluorobenzoyl)piperidin-4-yl]phenyl}-1-(pyridazin-3-yl)pyrrolidine-3-carboxamide] |
| > 10000 nM | CC(C)Cn1cc(-c2cc(C(=O)N[C@@H]3CCN(c4ccnnc4)C3)cs2)cn1 [Example 624, 5-[1-(2-methylpropyl)-1H-pyrazol-4-yl]-N-[(3R)-1-(pyridazin-4-yl)pyrrolidin-3-yl]thiophene-3-carboxamide] |
| 3.21 nM | O=C(Nc1ccc(O[C@@H]2CCN(C(=O)c3ccc(OC(F)(F)F)cc3)C2)cc1)C1CN(c2cccnn2)C1 [Example 519, 1-(pyridazin-3-yl)-N-[4-({(3R)-1-[4-(trifluoromethoxy)benzoyl]pyrrolidin-3-yl}oxy)phenyl]azetidine-3-carboxamide] |
| 616 nM | O=C(Nc1ccc(O[C@@H]2CCN(C(=O)c3ccc(Cl)cc3)C2)cc1)C1CN(c2ccnnc2)C1 [Example 465, N-(4-{[(3R)-1-(4-chlorobenzoyl)pyrrolidin-3-yl]oxy}phenyl)-1-(pyridazin-4-yl)azetidine-3-carboxamide] |
| 1.03 nM | COCCOCC(=O)N1CCC(c2ccc(NC(=O)C3CN(c4cccnc4)C3)cc2)CC1 [Example 123, N-(4-{1-[(2-methoxyethoxy)acetyl]piperidin-4-yl}phenyl)-1-(pyridin-3-yl)azetidine-3-carboxamide] |
| 11 nM | O=C(NC1CN(c2cccnn2)C1)c1ccc(C2CCN(C(=O)c3ccccc3F)CC2)s1 [Example 811, 5-[1-(2-fluorobenzoyl)piperidin-4-yl]-N-[1-(pyridazin-3-yl)azetidin-3-yl]thiophene-2-carboxamide] |
| 1.24 nM | O=C(Nc1ccc(C2CCN(C(=O)c3ccccc3F)CC2)cc1)[C@H]1CCN(c2cccnn2)C1 [Example 637, (3S)-N-{4-[1-(2-fluorobenzoyl)piperidin-4-yl]phenyl}-1-(pyridazin-3-yl)pyrrolidine-3-carboxamide] |
| 1.68 nM | CC(C)(C)C(=O)N1CCC(c2ccc(NC(=O)C3CN(c4cccnn4)C3)cc2)CC1 [Example 402, N-{4-[1-(2,2-dimethylpropanoyl)piperidin-4-yl]phenyl}-1-(pyridazin-3-yl)azetidine-3-carboxamide] |
| 6.35 nM | Cc1ccc(C(=O)N2CCC(c3ccc(NC(=O)C4CN(c5cccnn5)C4)cc3)CC2)cn1 [Example 434, N-(4-{1-[(6-methylpyridin-3-yl)carbonyl]piperidin-4-yl}phenyl)-1-(pyridazin-3-yl)azetidine-3-carboxamide] |
| 0.78 nM | O=C(Nc1ccc(O[C@@H]2CCN(C(=O)C(F)(F)c3ccccc3)C2)cc1)C1CN(c2cccnn2)C1 [Example 522, N-[4-({(3R)-1-[difluoro(phenyl)acetyl]pyrrolidin-3-yl}oxy)phenyl]-1-(pyridazin-3-yl)azetidine-3-carboxamide] |
| 9.28 nM | O=C(Nc1ccc(OC2CCN(C(=O)c3cc(F)cc(F)c3)CC2)cc1)C1CN(c2cccnn2)C1 [Example 243, N-(4-{[1-(3,5-difluorobenzoyl)piperidin-4-yl]oxy}phenyl)-1-(pyridazin-3-yl)azetidine-3-carboxamide] |

| SMILES | IC50 |
| --- | --- |
| O=C(Nc1ccc(C2CC3CCC(C2)N3C(=O)c2ccccc2)cc1)C1CN(c2cccnn2)C1 (stereo not shown) [Example 842, N-[4-(8-benzoyl-8-azabicyclo[3.2.1]oct-3-yl)phenyl]-1-(pyridazin-3-yl)azetidine-3-carboxamide] | 0.665 nM |
